Assay [1] addresses biotinylated human IL-17A / AF647-labeled human IL-17RA (Homo sapiens, UniProt Q16552). Description: Human IL-17A×IL-17RA TR-FRET assay. It counts as binding. Conditions: biotinylated human IL-17A 5 nM, AF647-labeled human IL-17RA 30 nM. In short, it runs like this:
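Compounds tested in duplicate at each concentration; neutral controls contain all components with DMSO in place of compound.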

Assay [2] concerns the target recombinant human IL-17AA (Homo sapiens, UniProt Q16552). Kind of assay: IL-6 release from NHDF cells, IL-17AA plus TNF-α stimulation. Conditions: IL-17AA 30 pM plus TNF-α 6 pM, 24 hours, IL-6 by ELISA. Type of assay: cell-based. The protocol:
IL-6 Release from NHDF Cells (Normal Human Dermal Fibroblasts)
NHDF cells isolated from normal adult mesoderm, connective tissues were cultured in fibroblast growth medium containing 2% supplement. […] The cells were allowed to adhere overnight before they were incubated with the compound/cytokine cocktail.
Diluted compounds were pre-incubated with recombinant human IL-17AA or IL-17AF plus human TNF-α for 30 minutes at room temperature on a shaker. […] The cells were incubated with the compound/cytokines cocktail for 24 hours at 37° C. (5% CO2). […] The final DMSO or plasma concentrations were 0.1% or 20%, respectively. All compound incubations were done in duplicate. The supernatants were collected to quantify IL-6 by ELISA according to the manufacturers instructions. The optical density was measured at 450 nm by an EnVision Multilabel Plate Reader (Perkin Elmer). The IL-6 levels produced after TNF-α stimulation were subtracted from the IL-6 produced after IL-17/TNF-α co-stimulation. These IL-17-specific IL-6 concentrations were used for […] value calculation.

Where [3] appears, read: TR-FRET, read-out: IL17AA FRET/ IL17Rawt IC50.
Where [4] appears, read: NHDF cells, read-out: IL17AA + TNF IC50 IL-6.
Where [5] appears, read: IL17AA FRET/ IL17Rawt IC50, TR-FRET.
Setting [6] is: IL17AA + TNF IC50 IL-6, NHDF cells.

Where two headings read alike, the source gives them in different places.

Chain of recombinant human IL-17AA (Q16552 24-155): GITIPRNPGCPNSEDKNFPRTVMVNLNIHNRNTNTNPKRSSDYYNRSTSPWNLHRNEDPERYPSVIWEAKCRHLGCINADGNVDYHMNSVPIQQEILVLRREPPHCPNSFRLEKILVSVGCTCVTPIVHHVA
Chain of biotinylated human IL-17A / AF647-labeled human IL-17RA (Q16552 24-155): as above

With `Cc1nocc1C(=O)N[C@H](C(=O)Nc1ccc(-c2c(C(F)(F)F)cc[n+]([O-])c2C)cc1)C1CCCC1` [Example 22, (S)-3-(4-(2-cyclopentyl-2-(3-methylisoxazole-4-carboxamido)acetamido)phenyl)-2-methyl-4-(trifluoromethyl)pyridine 1-oxide], the IC50 stood at 59 nM in assay [1] (setting [3]) and 66 nM in assay [2] (setting [4]).

`Cc1cc[n+]([O-])c(C)c1-c1ccc(NC(=O)C(NC(=O)c2conc2C)C2CCC(C(F)(F)F)CC2)cc1` [Example 23, 2,4-dimethyl-3-(4-((S)-2-(3-methylisoxazole-4-carboxamido)-2-((1r,4S)-4-(trifluoromethyl)cyclohexyl)acetamido)phenyl)pyridine 1-oxide]: the figures for the IC50 in assay [1] (setting [3]) and in assay [2] (setting [4]) were 60 nM and 6 nM, respectively.

In the case of `Cc1cc[n+]([O-])c(C)c1-c1ccc(NC(=O)C(NC(=O)c2ccnn2C)C2CCC(C(F)(F)F)CC2)cc1` [Example 24, 2,4-dimethyl-3-(4-((S)-2-(1-methyl-1H-pyrazole-5-carboxamido)-2-((1r,4S)-4-(trifluoromethyl)cyclohexyl)acetamido)phenyl)pyridine 1-oxide], the IC50 in assay [1] (setting [5]) amounted to 114 nM; in assay [2] (setting [6]) it was 48 nM.

With `COCc1nocc1C(=O)NC(C(=O)Nc1ccc(-c2c(C)cc[n+]([O-])c2C)cc1)C1CCC(C(F)(F)F)CC1` [Example 25, 3-(4-((S)-2-(3-(methoxymethyl)isoxazole-4-carboxamido)-2-((1r,4S)-4-(trifluoromethyl)cyclohexyl)acetamido)phenyl)-2,4-dimethylpyridine 1-oxide], the results for the IC50 in assay [1] (setting [3]) and in assay [2] (setting [4]) were 178 nM and 69 nM, respectively.

In the case of `CCc1nocc1C(=O)N[C@H](C(=O)Nc1ccc(-c2c(C(F)(F)F)cc[n+]([O-])c2C)cc1)[C@H]1CCCC(F)(F)C1` [Example 26, 3-(4-((S)-2-((S)-3,3-difluorocyclohexyl)-2-(3-ethylisoxazole-4-carboxamido)acetamido)phenyl)-2-methyl-4-(trifluoromethyl)pyridine 1-oxide], the results for the IC50 in assay [1] (setting [3]) and in assay [2] (setting [4]) were 44 nM and 14 nM, respectively.

Regarding `Cc1c(-c2ccc(NC(=O)[C@@H](NC(=O)c3ccnn3C)C3CCC(F)(F)CC3)cc2)c(C(F)(F)F)cc[n+]1[O-]` [Example 27, (S)-3-(4-(2-(4,4-difluorocyclohexyl)-2-(1-methyl-1H-pyrazole-5-carboxamido)acetamido)phenyl)-2-methyl-4-(trifluoromethyl)pyridine 1-oxide], the IC50 in assay [1] (setting [3]) is 121 nM; in assay [2] (setting [4]), 115 nM.

For `CCc1nocc1C(=O)N[C@H](C(=O)Nc1ccc(-c2c(C)cc[n+]([O-])c2C)cc1)[C@@H]1CC=C(F)CC1` [Example 28, 3-(4-((S)-2-(3-ethylisoxazole-4-carboxamido)-2-((S)-4-fluorocyclohex-3-en-1-yl)acetamido)phenyl)-2,4-dimethylpyridine 1-oxide], the IC50 in assay [1] (setting [3]) came out at 20 nM; in assay [2] (setting [4]) it was 22 nM.

On to `Cc1cc[n+]([O-])c(C)c1-c1ccc(NC(=O)[C@@H](NC(=O)c2conc2C)[C@@H]2CC=C(F)CC2)cc1` [Example 29, 3-(4-((S)-2-((S)-4-fluorocyclohex-3-en-1-yl)-2-(3-methylisoxazole-4-carboxamido)acetamido)phenyl)-2,4-dimethylpyridine 1-oxide], for which the figures for the IC50 in assay [1] (setting [3]) and in assay [2] (setting [4]) were 85 nM and 47 nM, respectively.

In the case of `CCc1nocc1C(=O)N[C@H](C(=O)Nc1ccc(-c2c(C)cc[n+]([O-])c2C)cc1)[C@H]1CCCC(F)(F)C1` [Example 30, 3-(4-((S)-2-((S)-3,3-difluorocyclohexyl)-2-(3-ethylisoxazole-4-carboxamido)acetamido)phenyl)-2,4-dimethylpyridine 1-oxide], the IC50 in assay [1] (setting [3]) was 46 nM; in assay [2] (setting [4]) it was 12 nM.

On to `CCc1nocc1C(=O)N[C@H](C(=O)Nc1ccc(-c2c(C)cc[n+]([O-])c2C)cc1)C1CCC(F)(F)CC1` [Example 31, (S)-3-(4-(2-(4,4-difluorocyclohexyl)-2-(3-ethylisoxazole-4-carboxamido)acetamido)phenyl)-2,4-dimethylpyridine 1-oxide], for which the IC50 in assay [1] (setting [3]) turned out to be 114 nM; in assay [2] (setting [4]), 15 nM.

Regarding `Cc1cc[n+]([O-])c(C)c1-c1ccc(NC(=O)[C@@H](NC(=O)c2ccnn2C)C2CCC(F)(F)CC2)cc1` [Example 32, (S)-3-(4-(2-(4,4-difluorocyclohexyl)-2-(1-methyl-1H-pyrazole-5-carboxamido)acetamido)phenyl)-2,4-dimethylpyridine 1-oxide], the IC50 in assay [1] (setting [3]) came to 286 nM; in assay [2] (setting [4]) it was 50 nM.

Turning to `COCc1nocc1C(=O)N[C@H](C(=O)Nc1ccc(-c2c(C)cc[n+]([O-])c2C)cc1)C1CCC(F)(F)CC1` [Example 33, (S)-3-(4-(2-(4,4-difluorocyclohexyl)-2-(3-(methoxymethyl)isoxazole-4-carboxamido)acetamido)phenyl)-2,4-dimethylpyridine 1-oxide], the values for the IC50 in assay [1] (setting [3]) and in assay [2] (setting [4]) were 1150 nM and 88 nM, respectively.

Regarding `CCc1nocc1C(=O)N[C@H](C(=O)Nc1ccc(-c2c(C)cc[n+]([O-])c2C)cc1)C1CCCC1` [Example 34, (S)-3-(4-(2-cyclopentyl-2-(3-ethylisoxazole-4-carboxamido)acetamido)phenyl)-2,4-dimethylpyridine 1-oxide], the IC50 in assay [1] (setting [3]) is 81 nM; in assay [2] (setting [4]), 100 nM.

For the molecule `CCn1nccc1C(=O)N[C@H](C(=O)Nc1ccc(-c2c(C)cc[n+]([O-])c2C)cc1)C1CCCC1` [Example 35, (S)-3-(4-(2-cyclopentyl-2-(1-ethyl-1H-pyrazole-5-carboxamido)acetamido)phenyl)-2,4-dimethylpyridine 1-oxide], the IC50 in assay [1] (setting [3]) is 306 nM; in assay [2] (setting [4]), 212 nM.

As to `Cc1cc[n+]([O-])c(C)c1-c1ccc(NC(=O)[C@@H](NC(=O)c2ccnn2C)C2CCCC2)cc1` [Example 36, (S)-3-(4-(2-cyclopentyl-2-(1-methyl-1H-pyrazole-5-carboxamido)acetamido)phenyl)-2,4-dimethylpyridine 1-oxide], the values for the IC50 in assay [1] (setting [3]) and in assay [2] (setting [4]) were 1410 nM and 38 nM, respectively.

As for `Cc1cc[n+]([O-])c(C)c1-c1ccc(NC(=O)[C@@H](NC(=O)c2conc2C)C2CCCC2)cc1` [Example 37, (S)-3-(4-(2-cyclopentyl-2-(3-methylisoxazole-4-carboxamido)acetamido)phenyl)-2,4-dimethylpyridine 1-oxide], the IC50 in assay [1] (setting [3]) was 396 nM; in assay [2] (setting [4]), 60 nM.

For `Cc1cc[n+]([O-])c(C)c1-c1ccc(NC(=O)[C@H](Cc2ccccc2Cl)NC(=O)c2conc2C)cc1` [Example 38, (S)-3-(4-(3-(2-chlorophenyl)-2-(3-methylisoxazole-4-carboxamido)propanamido)phenyl)-2,4-dimethylpyridine 1-oxide], the figures for the IC50 in assay [1] (setting [3]) and in assay [2] (setting [4]) were 17 nM and 131 nM, respectively.

Take `Cc1cc[n+]([O-])c(C)c1-c1ccc(NC(=O)[C@@H](NC(=O)c2ccnn2C)C2CCCCC2)cc1` [Example 39, (S)-3-(4-(2-cyclohexyl-2-(1-methyl-1H-pyrazole-5-carboxamido)acetamido)phenyl)-2,4-dimethylpyridine 1-oxide]: the IC50 in assay [1] (setting [3]) is 191 nM; in assay [2] (setting [4]) it was 20 nM.

As to `Cc1cc[n+]([O-])c(C)c1-c1ccc(NC(=O)[C@@H](NC(=O)c2ccnn2C(C)C)C2CCCCCC2)cc1` [Example 40, (S)-3-(4-(2-cycloheptyl-2-(1-isopropyl-1H-pyrazole-5-carboxamido)acetamido)phenyl)-2,4-dimethylpyridine 1-oxide], the IC50 stood at 25 nM in assay [1] (setting [3]) and 2 nM in assay [2] (setting [4]).

On to `Cc1cc[n+]([O-])c(C)c1-c1ccc(NC(=O)[C@@H](NC(=O)c2ccnn2C)C2CCCCCC2)cc1` [Example 41, (S)-3-(4-(2-cycloheptyl-2-(1-methyl-1H-pyrazole-5-carboxamido)acetamido)phenyl)-2,4-dimethylpyridine 1-oxide], for which the IC50 was found to be 24 nM in assay [1] (setting [3]) and 9 nM in assay [2] (setting [4]).

As to `Cc1cc[n+]([O-])c(C)c1-c1ccc(NC(=O)[C@@H](NC(=O)c2ccnn2C2CC2)C2CCCCCC2)cc1` [Example 42, (S)-3-(4-(2-cycloheptyl-2-(1-cyclopropyl-1H-pyrazole-5-carboxamido)acetamido)phenyl)-2,4-dimethylpyridine 1-oxide], the IC50 in assay [1] (setting [3]) amounted to 26 nM; in assay [2] (setting [4]), 12 nM.

Turning to `Cc1cc[n+]([O-])c(C)c1-c1ccc(NC(=O)[C@@H](NC(=O)c2conc2C)C2CCCCCC2)nc1` [Example 44, (S)-6′-(2-cycloheptyl-2-(3-methylisoxazole-4-carboxamido)acetamido)-2,4-dimethyl-[3,3′-bipyridine] 1-oxide], the IC50 came out at 34 nM in assay [1] (setting [3]) and 18 nM in assay [2] (setting [4]).

In the case of `Cc1c(-c2ccc(NC(=O)[C@@H](NC(=O)c3ccnn3C)C3CCCCC3)cc2)c(Cl)cc[n+]1[O-]` [Example 45, (S)-4-chloro-3-(4-(2-cyclohexyl-2-(1-methyl-1H-pyrazole-5-carboxamido)acetamid)phenyl)-2-methylpyridine 1-oxide], the IC50 in assay [1] (setting [5]) and in assay [2] (setting [6]) was 26 nM in each case.

The record behind these values is patent publication US12600728B2, “Interleukin-17 inhibitors” (priority 2020, dated 2026).
